pIC50: −log10 of the molar value.
What was measured:
[1] = test system: NF-κB or Iκ-Bα phosphorylation; test: NF-κB and IκBα phosphorylation in LPS-treated macrophages (Western blot); type: cell-based, C57BL/6J mice; conditions: compounds 30 min prior to 1 h LPS
Protocol: Macrophages were incubated with the compounds for 30 min prior to the addition of 10 ng/mL LPS for 24 h. Protein levels for COX-2 and NOS2 were detected in LPS-stimulated macrophages. As previously described, 10 µg of total protein was assessed. The primary antibodies were developed and characterized as previously described: for COX-2, mouse monoclonal antibody anti-COX-2 (clone COX-214, 1/5000); for NOS2, rabbit polyclonal antibody anti-NOS2 (dilution1/2000 [33]). Antibodies anti-phospho-NF-κB (3033S), phospho-IκBα (9246S), and total IκBα (4814S) were from Cell Signaling Technologies (Danvers, MA, USA). Total NF-κB C-20 (sc-372) was from Santa Cruz Biotechnologies (Dallas, TX, USA), and mouse β-actin (dilution 1/10,000) (Sigma-Aldrich, A5441). Clarity™ western ECL substrate (Bio-Rad Laboratories 10-5061) was used according to the manufacturer’s instructions to reveal positive bands visualized using Bio-Rad ChemiDoc. For Bcl-2 and cleaved PARP-1, HCT116 cells were plated in 6-well plates (200,000 cells per well) for 24 h, and treated with compounds 1 and 2 at 10, 25, and 50 µM for 72 h. Supernatants and cells were collected and lysed using RIPA lysis buffer containing inhibitors of protease. Western blot of Bcl-2 and cleaved PARP-1 was performed using 25 µg of total protein with a rabbit polyclonal antibody anti-Bcl-2 (1/500) (Santa Cruz Biotechnology, sc-492), rabbit polyclonal antibody anti-PARP-1 (1/1000) (Santa Cruz Biotechnology, sc-7150), and mouse anti-β-actin (dilution 1/10,000) (Sigma-Aldrich, A5441).
F i g u re S4: Phosphorylation of NF-κB and IκBα kinetics in LPS-treated macrophages. (A) Kinetics of the phosphorylation of NF-κB and IκBα in macrophages. Cells were treated with 10 ng/mL LPS for different time points and protein expression was assessed by western blot. We determine that 1 hour incubation with LPS is efficient for the phosphorylation of NF-κB and IκBα phosphorylation; (B) Macrophages were treated with the tested compounds for 30 minutes prior to 1 hour-treatment with LPS. β-actin was used as a loading control and densitometric analysis was done ImageJ Software (NIH, MA). Data are ex pressed as fold of LPS-treated macrophages and represented as mean ± S.E.M. of 3 different experiments, *p<0.05 versus LPS (One-w a y Anova followed by the Dunnett’s test). […]

[2] = test system: IL-6; test: IL-6 release in LPS-treated macrophages (BMDM); type: cell-based, C57BL/6J mice; conditions: for decrease of IL-6 production: 50 µM, LPS 24 h; for pIC50: Mus musculus, Macrophage, compounds 30 min prior to 10 ng/mL LPS for 24 h
Protocol: C57BL/6J (10–15 weeks old) male mice were obtained from the animal care facility at the American University of Beirut. All animal procedures were performed following the recommendations of the IACUC (Institutional Animal Care and Use Committee approval 16-09-M379). BMDMs were prepared and characterized as described previously by our group. BMDMs were isolated from C57BL/6J mice by flushing the femur and tibia with RPMI-1640 culture media (Sigma-Aldrich R7388), and cells were collected and centrifuged at 300× g for 5 min. The supernatant was discarded, and the pellet was resuspended in 2 mL red blood lysis 10% (Sigma-Aldrich R7767) medium in PBS and incubated for 5 min at room temperature. After diluting the suspension of cells with 5 mL of RPMI containing 10% FBS and 1% penicillin–streptomycin, cells were centrifuged at 300× g for 5 min, and the cell pellet was resuspended in RPMI media containing 10% FBS supplemented with 15% L929-conditioned medium containing macrophage-colony stimulating factor (M-CSF1) and plated on […]. Cells were allowed to proliferate and differentiate for 5–6 days. Cells were harvested, washed, and allowed to adhere overnight in RPMI containing 10% FBS for treatment. Cells were previously characterized by flow cytometry as macrophages using this method. […] Cells were plated at 0.8 × 10^6 cells per 3.8 cm^2 well [27].
BMDMs were then treated with different concentrations of the benzofuran and dihydrobenzofuran derivatives for 30 min prior to the addition of 10 ng/mL LPS for 24 h. […] The supernatants were assessed for IL-6, PGE2, CCL2, and nitrite, the stable derivative of NO, as described previously.
IL-6, CCL2, nitrite (for NO), and PGE2 concentrations from 3–5 independent experiments were expressed as percentage of LPS alone and as mean ± SEM. COX activity was determined as percentage of PGE2 produced from exogenous arachidonic acid. Curve fitting and calculation of IC50 values were performed using GraphPad Prism (version 9.5.1 Software, La Jolla, CA, USA).

Structure (SMILES) | effect on NF-κB or Iκ-Bα phosphorylation induced by LPS [1] | decrease of IL-6 production [2] | pIC50 [2]
COC(=O)/C=C1/Oc2ccc(Br)cc2C1(F)F [Compound 1] | did not modify |  | 
O=C(O)/C=C1/Oc2ccc(Br)cc2C1(F)F [Compound 2] | did not modify | more than 50% | 5.91
COC(=O)CC1(O)Oc2ccc(Br)cc2C1(F)F (stereo not shown) [Compound 8] | did not modify | more than 50% | 5.04
O=C(O)/C=C1\Oc2ccc(Br)cc2C1(F)F [Compound 3] | did not modify | more than 50% | 5.28

From paper PMC10299677, “Fluorinated Benzofuran and Dihydrobenzofuran as Anti-Inflammatory and Potential Anticancer Agents” (International Journal of Molecular Sciences, 2023)
